According to PMC7894426, “Influence of verapamil on the pharmacokinetics of rotundic acid in rats and its potential mechanism” (Pharmaceutical Biology, 2021):
Read-outs that look alike come from different tables or passages of the source.

Key:
[1] = rats; ref Wang et al. [1994]; cited from earlier work
P-gp [2] = target: P-gp (Homo sapiens, UniProt P08183); assay: Bidirectional transport across MDCKII-MDR1 cell monolayers (P-gp substrate assessment)
Procedure: MDCKII-Mock and MDCKII-MDR1 cells were given as a gift by Fuji Biomedix Co., Ltd. (Japan) and cultured in DMEM supplemented with 10% FBS and 1% antibiotic (10,000 U/mL penicillin and 10 mg/mL streptomycin). Caco-2 cell line, the human epithelial cell used in this assay, was purchased from the Cell Bank of the Chinese Academy of Sciences (Shanghai, China) and maintained between 30 and 45 passages. It was cultured according to the previous report (Guo et al. [2018]; Xiang et al. [2020]). Briefly, the Caco-2 cells were cultured in DMEM supplemented with 10% FBS, 1% NEAA, and 1% antibiotic (10,000 U/mL penicillin and 10 mg/mL streptomycin). All cells were maintained in a 5% CO2 atmosphere and 90% relative humidity at 37 °C.
For transport studies, the MDCKII-Mock, MDCKII-MDR1, and Caco-2 cells were seeded at a density of 2 × 10^5 cells/mL on Costar Transwell inserts (1.12 cm^2 surface, polycarbonate, 12 mm diameter, 0.4 µm pore size). MDCKII-Mock and MDCKII-MDR1 cells were cultured for 5–7 days in medium, for the first four days, the medium was replaced freshly every two days, and then daily. The Caco-2 cells were cultured for 19–21 days in the medium. For the first 2 weeks, the medium was replaced freshly every two days, and then daily. […] The transepithelial electrical resistance (TEER) of the monolayer cells was measured by Millcell ERS-2 (Millipore, USA), and only the monolayer with TEER exceeding 150 Ω·m^2 (MDCKII-Mock and MDCKII-MDR1 cells) and 400 Ω·m^2 (Caco-2 cells) were used for the transport experiment. The membrane integrity and transport function of MDCKII-Mock, MDCKII-MDR1, and Caco-2 cell monolayers were further verified with Lucifer yellow and Rhodamine-123. The qualified monolayers were used for transport studies.
Before the transport studies, the media in both chambers of the transwell were replaced by warm (37 °C) Hank’s balanced salt solution (HBSS), and then the MDCKII-Mock, MDCKII-MDR1, and Caco-2 cell monolayers were incubated at 37 °C and 5% CO2 for 20 min. […] Our transport studies included absorptive direction transport from the apical (AP) side to the basolateral (BL) side and secretory direction transport from the BL side to the AP side. […] After administration, the transwell plate was placed in a thermostatic oscillator shaking at 60 rpm and 37 °C. At 10, 20, 40 and 60 min, respectively, 50 µL incubating sample aliquot was collected from the receiver chamber and immediately replaced by the same volume of fresh HBSS (37 °C). In addition, the membrane integrity of MDCKII-Mock, MDCKII-MDR1, and Caco-2 cell monolayers were evaluated with Lucifer yellow (30 µM) and TEER value, and the efflux activity of P-gp was validated using a typical P-gp substrate rhodamine-123 (10 µM).
The parameters Papp, RE, and NRE were calculated using the following equation: Papp=(ΔQ/Δt)×[1/(A×C0)]

[3] = tested on: MDCKII-Mock cell monolayers; assay: Bidirectional transport across MDCKII-Mock cell monolayers; assay type: in vitro ADME, canine; details: MDCKII-Mock monolayer integrity check, Lucifer yellow 30 µM
Procedure: (§1) The qualified monolayers were used for transport studies. […] Each experiment was carried out in triplicate.

Caco-2 cell monolayer = assay: Bidirectional transport across Caco-2 cell monolayer; assay type: in vitro ADME, human; details: Caco-2 monolayer integrity check, Lucifer yellow 30 µM
Procedure: as §1

[4] = Bidirectional transport across MDCKII-Mock cell monolayers; assay type: in vitro ADME, canine; details: dog, MDCK, MDCKII-Mock, 20 min; for efflux ratio at 20 min: read-out: RE (efflux ratio)
Procedure: as §1

P-gp [5] = assay: Bidirectional transport across Caco-2 cell monolayer; assay type: in vitro ADME, human; details: human, Caco-2, rhodamine-123 10 µM
Procedure: as §1

[6] = pH 7.4, with verapamil 50 µM, + 50 µM verapamil

Chain of P-gp (Homo sapiens, UniProt P08183) (P08183 whole entry): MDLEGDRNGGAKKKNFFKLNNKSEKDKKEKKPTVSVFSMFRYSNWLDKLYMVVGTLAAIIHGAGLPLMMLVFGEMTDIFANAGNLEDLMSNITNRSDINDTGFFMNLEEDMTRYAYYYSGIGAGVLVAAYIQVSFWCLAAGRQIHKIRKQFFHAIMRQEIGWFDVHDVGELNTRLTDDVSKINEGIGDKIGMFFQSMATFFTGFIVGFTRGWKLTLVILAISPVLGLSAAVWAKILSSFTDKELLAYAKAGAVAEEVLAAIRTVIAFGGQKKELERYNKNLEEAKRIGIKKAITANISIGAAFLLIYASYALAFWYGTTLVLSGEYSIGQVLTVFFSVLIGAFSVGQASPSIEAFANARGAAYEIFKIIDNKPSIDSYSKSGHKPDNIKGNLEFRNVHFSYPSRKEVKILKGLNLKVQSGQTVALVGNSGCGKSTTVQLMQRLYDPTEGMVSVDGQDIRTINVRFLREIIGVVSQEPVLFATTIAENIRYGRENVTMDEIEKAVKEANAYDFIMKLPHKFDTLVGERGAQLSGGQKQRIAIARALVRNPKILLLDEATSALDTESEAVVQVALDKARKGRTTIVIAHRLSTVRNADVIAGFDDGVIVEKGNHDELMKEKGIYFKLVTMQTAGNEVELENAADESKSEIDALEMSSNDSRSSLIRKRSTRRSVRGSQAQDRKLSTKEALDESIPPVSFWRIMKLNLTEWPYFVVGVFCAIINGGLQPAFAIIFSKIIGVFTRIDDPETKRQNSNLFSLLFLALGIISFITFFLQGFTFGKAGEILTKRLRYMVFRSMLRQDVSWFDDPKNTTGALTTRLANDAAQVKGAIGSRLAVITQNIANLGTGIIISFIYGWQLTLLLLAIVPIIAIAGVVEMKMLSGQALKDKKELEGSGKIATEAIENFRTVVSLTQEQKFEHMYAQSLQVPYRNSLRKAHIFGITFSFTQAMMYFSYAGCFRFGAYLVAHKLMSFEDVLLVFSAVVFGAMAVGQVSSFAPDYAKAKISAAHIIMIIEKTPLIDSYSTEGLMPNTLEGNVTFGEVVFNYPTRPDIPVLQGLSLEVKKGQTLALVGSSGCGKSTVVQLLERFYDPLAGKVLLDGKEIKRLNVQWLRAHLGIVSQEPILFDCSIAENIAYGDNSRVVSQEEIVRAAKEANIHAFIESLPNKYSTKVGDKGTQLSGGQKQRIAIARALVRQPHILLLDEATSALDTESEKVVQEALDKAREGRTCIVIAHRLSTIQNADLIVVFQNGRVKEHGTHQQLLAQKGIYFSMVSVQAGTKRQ

Molecule: CC1(C)[C@@H](O[C@H]2O[C@H](C(=O)O)[C@@H](O)[C@H](O)[C@H]2O[C@@H]2O[C@H](C(=O)O)[C@@H](O)[C@H](O)[C@H]2O)CC[C@]2(C)[C@H]3C(=O)C=C4[C@@H]5C[C@@](C)(C(=O)O)CC[C@]5(C)CC[C@@]4(C)[C@]3(C)CC[C@@H]12 [glycyrrhizin]
- bioavailability [1]: 4.0%

Molecule: Lucifer yellow
- Papp(AP→BL) (P-gp [2]; MDCKII-MDR1 monolayer integrity check, Lucifer yellow 30 µM): 0.432 ± 0.0468 × 10^−6 cm/s
- Papp(AP→BL) [3]: 0.463 ± 0.0568 × 10^−6 cm/s
- Papp(AP→BL) (Caco-2 cell monolayer): 0.268 ± 0.0346 × 10^−6 cm/s

Molecule: COC(=O)c1ccccc1-c1c2ccc(=N)cc-2oc2cc(N)ccc12 [Rhodamine 123, rhodamine-123]
- Papp A→B at 20 min (P-gp [2]; dog, MDCK-MDR1, pH 7.4): 0.193 ± 0.0535 ×10⁻⁶ cm/s
- Papp B→A at 20 min (P-gp [2]; dog, MDCK-MDR1, pH 7.4): 1.78 ± 0.293 ×10⁻⁶ cm/s
- efflux ratio at 20 min (P-gp [2]; dog, MDCK-MDR1, pH 7.4): 9.2
- Papp A→B at 20 min [4, 6]: 0.409 ± 0.0686 ×10⁻⁶ cm/s
- Papp B→A at 20 min [4, 6]: 0.538 ± 0.0642 ×10⁻⁶ cm/s
- efflux ratio at 20 min [4, 6]: 1.32
- Papp A→B at 20 min ([4]; pH 7.4, without verapamil): 0.378 ± 0.0314 ×10⁻⁶ cm/s
- Papp B→A at 20 min ([4]; pH 7.4, without verapamil): 0.481 ± 0.0998 ×10⁻⁶ cm/s
- efflux ratio at 20 min ([4]; pH 7.4, without verapamil): 1.27
- efflux ratio at 10 µM (P-gp [5]; pH 7.4, with verapamil 50 µM, verapamil present (50 µM)): 4.86
- efflux ratio at 10 µM (P-gp [5]; pH 7.4, without verapamil): 15.6
